How the values were obtained:
Type in all cases: in vivo, human
participants with NT1 [1] = assay: Epworth Sleepiness Scale (ESS), Phase 2 NT1 trial
Text: In some aspects of the methods described herein, the subject experiences a lower Epworth Sleepiness Scale (ESS) total score after a treatment period compared to an untreated subject. The ESS is a subjective, self-administered scale that has been validated and used extensively as a key endpoint in studies in patients with narcolepsy to measure excessive daytime sleepiness (EDS). The ESS provides individuals with 8 different situations of daily life and asks them how likely they are to fall asleep in those situations (scored 0 to 3) and to try to imagine their likelihood of dozing even if they have not actually been in the identical situation; the scores are summed to give an overall score of 0 to 24. Higher scores indicate stronger subjective daytime sleepiness, and scores below 10 are considered to be within the reference range.
In certain aspects, the ESS is administered to assess sleep propensity on selected days indicated in the Schedule of Activities for the trial. Participants are asked to evaluate their subjective sleepiness based on recalling their most recent daily life experiences.
Randomization was stratified by region. Starting on the morning of Day 1, the study drug was administered at approximately the same time each day for 8 or 12 weeks. […]

participants with NT2 = assay: Safety (TEAEs), long-term extension (LTE) study, NT2 participants
Procedure: Eligible participants were age 18-70 years, with Epworth Sleepiness Scale (ESS) score>12 and no other current EDS-related medical conditions. Participants were randomized 1:1:1 to daily oral Compound A 2 mg twice 3 hours apart, 2 mg then 5 mg 3 hours later, or placebo. Study endpoints included change from baseline to Week 8 in mean Sleep Onset Latency on the Maintenance of Wakefulness Test (mean SOL-MWT; primary endpoint), ESS total score, and incidence of treatment-emergent adverse events (TEAEs). Participants who completed the placebo-controlled study could enroll in a ˜2-year Long Term Extension (LTE) study. LTE TEAE data up to Jan. 25, 2024 are reported.
This was a phase 2/3 multicenter, dose-blind, long-term extension (LTE) study of Compound A. Participants from controlled studies conducted with Compound A, who had up to a 3-month dosing gap between their parent study and the screening period for this study, were eligible to participate in this study.
Day 1 dosing for all participants occurred in-clinic with PK and safety assessments. Participants who were undergoing nocturnal polysomnography (nPSG) and an MWT during the final assessment of their Compound A parent study had the option of staying overnight in the clinic on Day −1 so they were already in the clinic for Day 1 the following day. […]

participants with NT1 [2] = assay: Efficacy (SOL-MWT, ESS, WCR), LTE study interim analysis, NT1 participants; conditions: all Compound A doses, up to 6 months (FIG. 31)
Procedure: An nPSG and MWT were conducted on Day 181 and 182, respectively. Cognitive testing were conducted at Week 26 (6 months). ESS and NSS-CT were collected monthly starting at Week 4 and then approximately every 3 months after Week 12. There were additional ESS measurements at Week 2 and in the first week after drug discontinuation. PGI-I and CGI-I were collected approximately every 3 months starting at Week 12. Other patient-reported outcome measures were administered approximately every 6 months up until Year 1.
Participants with NT1 also completed the Cataplexy e-diary daily over 2-week periods to capture the weekly cataplexy rate before the next visit in-clinic. The Cataplexy e-diary was completed at approximately 3-month intervals during Year 1 and at 6-month intervals during Year 2.
Participants completing either Example 1 or Example 2 with ≤3 months between parent study-end and LTE screening could enroll. Primary endpoint is the occurrence of treatment-emergent adverse events (TEAEs); secondary endpoints are change from baseline (parent study) in sleep onset latency on the Maintenance of Wakefulness Test (SOL-MWT), Epworth Sleepiness Scale (ESS) score, and weekly cataplexy rate (WCR). Participants with NT1 receive oral Compound A 0.5 mg twice 3 hours apart, 2 mg twice 3 hours apart, 2 mg then 5 mg 3 hours apart, or 7 mg once daily. […]

CCS(=O)(=O)N[C@@H]1[C@H](Cc2cccc(-c3cc(F)cc(F)c3)c2F)N(C(=O)C(C)(C)O)CC1(F)F [Compound A, N-{(2S,3R)-4,4-difluoro-1-(2-hydroxy-2-methylpropanoyl)-2-[(2,3′,5′-trifluoro[1,1′-biphenyl]-3-yl)methyl]pyrrolidin-3-yl}ethanesulfonamide]
Change from baseline to Week 8 in ESS versus placebo (participants with NT1 [1]; all dose groups, adjusted for multiple comparisons): statistically significant changes
Participants with ESS≤10 (participants with NT1 [1]; weeks 4 and 8 (FIG. 4)): Most participants achieved ESS total score≤10
Participants discontinued due to TEAEs (participants with NT2): 3
Participants who experienced TEAEs (participants with NT2; treated participants (41/57), data up to Jan. 25, 2024): 71.9%
Efficacy on SOL-MWT, ESS and WCR over time (participants with NT1 [2]): maintenance of efficacy

— patent US20250375417A1, “OREXIN RECEPTOR 2 (OX2R) AGONIST FOR USE IN NARCOLEPSY TYPE 1 (NT1)” (TAKEDA PHARMACEUTICAL COMPANY LIMITED, priority 2024, published 2025)
